In one experiment the target is Human BLT1. The note with it: high affinity receptor; ref. [12]; cited from earlier work.
Another experiment has as its system Human BLT2. Conditions: cited from earlier work.
Experiment [1] has as its system K/BxN serum-transfer arthritis in C57BL/6 mice. In words: K/BxN serum transfer arthritis model, prophylactic (Example 1). It is filed as in vivo, mouse (C57BL/6). The note with it: 50 mg/kg orally once daily, day 0 to day 14. From the text: The K/BxN serum-transfer arthritis model was used to test whether development of arthritis could be prevented by Coversin. This model is a well-known murine model in which the immunological mechanisms occurring in rheumatoid arthritis (RA) are induced by transferring serum from arthritic transgenic K/BxN mice to naive mice. In the absence of treatment arthritic symptoms occur a few days later. This model is recognised to be highly relevant for RA, especially for the preclinical screening of new therapeutic targets for RA and perhaps other forms of inflammatory arthritis.
(§1) Experimental RA was induced using the protocol described by. Five mice were tested in each treatment group.
On day 0 C57BL/6 mice were assessed for clinical score and paw thickness using standard protocols. All mice received an injection of K/BxN serum on day 0 and on day 2. Each treatment was administered every day from day 0 to day 14. On days where serum was also injected (day 0 and day 2) drug was administered immediately after the serum injection. Clinical score and paw thickness were measured every other day.
Treatment groups were as follows: • Group 1: PBS (vehicle, subcutaneous, q24h) • Group 2: Treatment (Coversin 5 mg/kg subcutaneous, q12h) • Group 3: Treatment (Zileuton 50 mg/kg orally once daily) • Group 4: Treatment (PAS-Coversin 20 mg/kg subcutaneous, once daily)

Experiment [2] shares this test system. As to the kind of experiment: K/BxN serum transfer arthritis model, treatment of established disease (Example 2). In kind it is in vivo, mouse (C57BL/6). The note with it: 50 mg/kg orally once daily, day 4 to day 14. The protocol:
The K/BxN serum-transfer arthritis (STA) model was used to test whether established arthritic disease could be ameliorated by Coversin.
as §1
On day 0 C57BL/6 mice were assessed for clinical score and paw thickness using standard protocols. All mice received an injection of K/BxN serum on day 0 and on day 2. The treatment was administered every day from day 4 to day 14. On days where serum was also injected (day 0 and day 2) drug was administered immediately after the serum injection. Clinical score and paw thickness were measured every other day.
Treatment groups were as follows: • Group 1: PBS (vehicle) • Group 2: Treatment (PAS-L Coversin 20 mg/kg subcutaneous once daily) • Group 3: Treatment (Zileuton 50 mg/kg orally once daily) • Group 4: Treatment (PAS-Coversin 20 mg/kg subcutaneous once daily)

Each structure is given as a SMILES string.

For the compound `CCCCC/C=C\C[C@@H](O)/C=C/C=C/C=C\[C@@H](O)CCCC(=O)O` [LTB4, Leukotriene B4], the dissociation constant Kd on Human BLT1 was 0.00039 to 0.0015 µM; at Human BLT2 (human BLT2), 0.023 µM. Also, the “lower affinity for LTB4 than BLT1” value in the experiment with Human BLT2 (BLT2 compared with BLT1) was 20 fold.
On to `CC(c1cc2ccccc2s1)N(O)C(N)=O` (centres unmarked) [Zileuton, N-[1-(1-benzothien-2-yl)ethyl]-N-hydroxyurea], for which the development of arthritis result in experiment [1] was “partially ameliorates the development of arthritis”. The “day of maximum clinical score” value in experiment [2] was found to be 6 days.

Source of the values: US20250195612A1, “Coversin for use in the treatment of rheumatic diseases” (Volution Immuno Pharmaceuticals SA, priority 2018, published 2025).
